Measured values from patent EP4667458A1 (Kanaph Therapeutics Inc., priority 2023, dated 2024).
pIC50: −log10 of the molar value.

Biological target: T1, KRAS^G12C::SOS1 (Homo sapiens, UniProt Q07889)
T1 sequence (Q07889 1-1333): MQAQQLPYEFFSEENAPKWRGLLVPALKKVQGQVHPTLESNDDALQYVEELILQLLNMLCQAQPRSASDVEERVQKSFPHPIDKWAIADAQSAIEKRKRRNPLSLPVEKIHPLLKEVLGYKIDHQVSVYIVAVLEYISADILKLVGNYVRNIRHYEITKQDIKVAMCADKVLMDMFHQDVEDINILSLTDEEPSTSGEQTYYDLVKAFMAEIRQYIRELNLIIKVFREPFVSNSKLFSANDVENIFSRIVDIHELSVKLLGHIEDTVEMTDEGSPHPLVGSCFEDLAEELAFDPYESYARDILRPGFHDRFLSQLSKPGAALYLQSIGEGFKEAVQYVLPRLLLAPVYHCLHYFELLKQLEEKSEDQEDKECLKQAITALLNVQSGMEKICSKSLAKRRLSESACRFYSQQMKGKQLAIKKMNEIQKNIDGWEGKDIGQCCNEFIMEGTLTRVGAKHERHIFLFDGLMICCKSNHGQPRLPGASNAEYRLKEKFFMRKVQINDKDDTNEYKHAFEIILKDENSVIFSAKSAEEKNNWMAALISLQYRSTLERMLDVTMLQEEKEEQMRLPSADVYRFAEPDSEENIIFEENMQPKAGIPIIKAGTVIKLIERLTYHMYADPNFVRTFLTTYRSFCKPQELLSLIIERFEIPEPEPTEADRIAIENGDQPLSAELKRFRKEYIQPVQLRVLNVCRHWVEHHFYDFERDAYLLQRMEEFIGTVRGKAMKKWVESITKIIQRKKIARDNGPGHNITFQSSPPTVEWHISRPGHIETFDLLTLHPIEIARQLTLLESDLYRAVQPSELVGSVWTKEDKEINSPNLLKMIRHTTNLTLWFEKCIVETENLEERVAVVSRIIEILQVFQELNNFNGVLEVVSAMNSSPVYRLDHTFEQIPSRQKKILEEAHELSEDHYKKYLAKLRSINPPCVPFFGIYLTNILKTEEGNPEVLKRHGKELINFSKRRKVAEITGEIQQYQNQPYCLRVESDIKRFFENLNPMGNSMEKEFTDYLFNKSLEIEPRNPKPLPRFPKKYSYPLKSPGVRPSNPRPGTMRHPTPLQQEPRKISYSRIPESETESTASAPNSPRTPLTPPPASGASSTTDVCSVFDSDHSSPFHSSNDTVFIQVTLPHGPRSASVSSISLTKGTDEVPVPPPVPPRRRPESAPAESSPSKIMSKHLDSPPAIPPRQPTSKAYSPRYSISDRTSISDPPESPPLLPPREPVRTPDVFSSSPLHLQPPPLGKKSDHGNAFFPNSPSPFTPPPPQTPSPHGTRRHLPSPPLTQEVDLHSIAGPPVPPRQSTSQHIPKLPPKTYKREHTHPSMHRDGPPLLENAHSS
Assay: KRAS G12C::SOS1 protein-protein interaction (PPI) inhibition assay (HTRF binding kit)

Row | pIC50 | Structure (SMILES)
1 | > 6.00 | CNCc1ccc(F)cc1-c1ccc([C@@H](C)NC(=O)c2ccc(=O)n(-c3cnn(C)c3)n2)s1 [Example 296, N-[(1R)-1-[5-[5-fluoro-2-(methylaminomethyl)phenyl]-2-thienyl]ethyl]-1-(1-methylpyrazol-4-yl)-6-oxo-pyridazine-3-carboxamide]
2 | > 6.00 | C[C@@H](NC(=O)c1ccc(=O)[nH]n1)c1cc(N)cc(C(F)(F)F)c1 [Example 221, N-[(1R)-1-[3-amino-5-(trifluoromethyl)phenyl]ethyl]-6-oxo-1H-pyridazine-3-carboxamide]
3 | < 5.00 | C[C@@H](NC(=O)c1ccc(=O)n(-c2ccccc2F)n1)c1cccc(Oc2ccccc2)c1 [Example 306, 1-(2-fluorophenyl)-6-oxo-N-[(1R)-1-(3-phenoxyphenyl)ethyl]pyridazine-3-carboxamide]
4 | > 6.00 | C[C@@H](NC(=O)c1ccc(=O)n(-c2cccc(-c3ccon3)c2)n1)c1cc(N)cc(C(F)(F)F)c1 [Example 376, N-[(1R)-1-[3-amino-5-(trifluoromethyl)phenyl]ethyl]-1-(3-isoxazol-3-ylphenyl)-6-oxo-pyridazine-3-carboxamide]
5 | > 6.00 | C[C@@H](NC(=O)c1ccc(=O)n(-c2cccc(-c3ccnn3C)c2)n1)c1cc(N)cc(C(F)(F)F)c1 [Example 333, N-[(1R)-1-[3-amino-5-(trifluoromethyl)phenyl]ethyl]-1-[3-(2-methylpyrazol-3-yl)phenyl]-6-oxo-pyridazine-3-carboxamide]
6 | > 6.00 | CNCc1cc2c(cc1-c1ccc([C@@H](C)NC(=O)c3ccc(=O)n(-c4ccccc4F)c3)s1)CC2 [Example 276, 1-(2-fluorophenyl)-N-[(1R)-1-[5-[4-(methylaminomethyl)-3-bicyclo[4.2.0]octa-1,3,5-trienyl]-2-thienyl]ethyl]-6-oxo-pyridine-3-carboxamide]
7 | > 6.00 | C[C@@H](NC(=O)c1ccc(=O)n(-c2cccc(-c3cncs3)c2)n1)c1cccc(C(F)(F)CO)c1F [Example 339, N-[(1R)-1-[3-(1,1-difluoro-2-hydroxy-ethyl)-2-fluorophenyl]ethyl]-6-oxo-1-(3-thiazol-5-ylphenyl)pyridazine-3-carboxamide]
8 | > 6.00 | C[C@@H](NC(=O)c1ccc(=O)n(-c2cccc(-c3nccs3)c2)n1)c1cc(N)cc(C(F)(F)F)c1 [Example 337, N-[(1R)-1-[3-amino-5-(trifluoromethyl)phenyl]ethyl]-6-oxo-1-(3-thiazol-2-ylphenyl)pyridazine-3-carboxamide]
9 | > 6.00 | CNCc1cc(F)c(Cl)cc1-c1ccc([C@@H](C)NC(=O)c2ccc(=O)n(-c3cccnc3F)n2)s1 [Example 399, N-[(1R)-1-(5-{5-chloro-4-fluoro-2-[(methylamino)methyl]phenyl}thiophen-2-yl)ethyl]-1-(2-fluoropyridin-3-yl)-6-oxo-1,6-dihydropyridazine-3-carboxamide]
10 | > 6.00 | CNCc1cc(F)ccc1-c1ccc([C@@H](C)NC(=O)c2ccc(=O)n(-c3ccccc3F)n2)s1 [Example 279, N-[(1R)-1-[5-[4-fluoro-2-(methylaminomethyl)phenyl]-2-thienyl]ethyl]-1-(2-fluorophenyl)-6-oxo-pyridazine-3-carboxamide]
11 | > 6.00 | CC(=O)Nc1cc(=O)n(-c2ccccc2F)nc1C(=O)N[C@H](C)c1cccc(C(F)(F)COC(C)=O)c1F [Example 380, [2-[3-[(1R)-1-[[4-acetamido-1-(2-fluorophenyl)-6-oxo-pyridazine-3-carbonyl]amino]ethyl]-2-fluoro-phenyl]-2,2-difluoro-ethyl] acetate]
12 | > 6.00 | C[C@@H](NC(=O)c1nn(-c2ccccc2)c(=O)c2cc[nH]c12)c1cc(N)cc(C(F)(F)F)c1 [Example 308, N-[(1R)-1-[3-amino-5-(trifluoromethyl)phenyl]ethyl]-4-oxo-5-phenyl-1H-pyrrolo [2,3-d] pyridazine-7-carboxamide]
13 | > 6.00 | C[C@@H](NC(=O)c1ccc(=O)n(-c2cccc(S(C)(=O)=O)c2)c1)c1cc(N)cc(C(F)(F)F)c1 [Example 167, N-[(1R)-1-[3-amino-5-(trifluoromethyl)phenyl]ethyl]-1-(3-methylsulfonylphenyl)-6-oxo-pyridine-3-carboxamide]
14 | > 6.00 | CC(=O)Nc1cc(=O)n(-c2ccccc2F)nc1C(=O)N[C@H](C)c1cc(N)cc(C(F)(F)F)c1 [Example 382, 4-acetamido-N-[(1R)-1-[3-amino-5-(trifluoromethyl)phenyl]ethyl]-1-(2-fluorophenyl)-6-oxo-pyridazine-3-carboxamide]

Further lines, the compound ahead of its results:

Row | Structure (SMILES) | pIC50
15 | C[C@@H](NC(=O)c1ccc(=O)n(-c2cccnc2F)n1)c1cc(N)cc(C(F)(F)F)c1 [Example 360, N-[(1R)-1-[3-amino-5-(trifluoromethyl)phenyl]ethyl]-1-(2-fluoro-3-pyridyl)-6-oxo-pyridazine-3-carboxamide] | > 6.00
16 | C[C@@H](NC(=O)c1ccc(=O)n(-c2cccc(-c3ccn(C)n3)c2)n1)c1cc(N)cc(C(F)(F)F)c1 [Example 331, N-[(1R)-1-[3-amino-5-(trifluoromethyl)phenyl]ethyl]-1-[3-(1-methylpyrazol-3-yl)phenyl]-6-oxo-pyridazine-3-carboxamide] | > 6.00
17 | C[C@@H](NC(=O)c1nn(-c2ccccc2F)c(=O)cc1N)c1cc(N)cc(C(F)(F)F)c1 [Example 381, 4-amino-N-[(1R)-1-[3-amino-5-(trifluoromethyl)phenyl]ethyl]-1-(2-fluorophenyl)-6-oxo-pyridazine-3-carboxamide] | > 6.00
18 | COCC(F)(F)c1cccc([C@@H](C)NC(=O)c2ccc(=O)n(-c3ccccc3F)n2)c1F [Example 242, N-[(1R)-1-[3-(1,1-difluoro-2-methoxy-ethyl)-2-fluoro-phenyl]ethyl]-1-(2-fluorophenyl)-6-oxo-pyridazine-3-carboxamide] | > 6.00
19 | COc1cc(-n2nc(C(=O)N[C@H](C)c3cc(N)cc(C(F)(F)F)c3)ccc2=O)ccn1 [Example 196, N-[(1R)-1-[3-amino-5-(trifluoromethyl)phenyl]ethyl]-1-(2-methoxy-4-pyridyl)-6-oxo-pyridazine-3-carboxamide] | > 6.00
20 | CNCc1ccccc1-c1ccc([C@@H](C)NC(=O)c2ccc(=O)n(-c3cccnc3F)n2)s1 [Example 412, 1-(2-fluoropyridin-3-yl)-N-[(1R)-1-(5-{2-[(methylamino)methyl]phenyl}thiophen-2-yl)ethyl]-6-oxo-1,6-dihydropyridazine-3-carboxamide] | > 6.00
21 | COc1ccc(-n2nc(C(=O)N[C@H](C)c3cccc(C(F)(F)CO)c3F)c(C3CC3)cc2=O)c(F)c1 [Example 366, 4-cyclopropyl-N-[(1R)-1-[3-(1,1-difluoro-2-hydroxy-ethyl)-2-fluorophenyl]ethyl]-1-(2-fluoro-4-methoxy-phenyl)-6-oxopyridazine-3-carboxamide] | 5.00 to 6.00
22 | CNCc1ccc(Cl)cc1-c1ccc([C@@H](C)NC(=O)c2ccc(=O)n(-c3cccnc3NC)n2)s1 [Example 271, N-[(1R)-1-[5-[5-chloro-2-(methylaminomethyl)phenyl]-2-thienyl]ethyl]-1-[2-(methylamino)-3-pyridyl]-6-oxo-pyridazine-3-carboxamide] | > 6.00
23 | CNCc1ccc(Cl)cc1-c1ccc([C@@H](C)NC(=O)c2ccc(=O)n(-c3cnn(CCOC)c3)n2)s1 [Example 406] | > 6.00
24 | C[C@@H](NC(=O)c1ccc(=O)n(-c2cccc(C(=O)N3CCCC3)c2)n1)c1cc(N)cc(C(F)(F)F)c1 [Example 197, N-[(1R)-1-[3-amino-5-(trifluoromethyl)phenyl]ethyl]-6-oxo-1-[3-(pyrrolidine-1-carbonyl)phenyl]pyridazine-3-carboxamide] | > 6.00
25 | C[C@@H](NC(=O)c1ccc(=O)n(-c2c(F)cccc2F)n1)c1cccc(C(F)(F)CO)c1F [Example 357, N-[(1R)-1-[3-(1,1-difluoro-2-hydroxy-ethyl)-2-fluoro-phenyl]ethyl]-1-(2,6-difluorophenyl)-6-oxo-pyridazine-3-carboxamide] | 5.00 to 6.00
26 | C[C@@H](NC(=O)c1ccc(=O)n(-c2ccccc2F)c1)c1cc(N)cc(C(F)F)c1 [Example 263, N-[(1R)-1-[3-amino-5-(difluoromethyl)phenyl]ethyl]-1-(2-fluorophenyl)-6-oxo-pyridine-3-carboxamide] | > 6.00
